These results are taken from US10800778B2 (Entasis Therapeutics Limited, priority 2016, dated 2020).

Data set [1] has as its target TEM-1 (Class A beta-lactamase) (Escherichia coli, UniProt P62593). Description: Inhibition of beta-lactamase enzymes (nitrocefin hydrolysis), TEM-1. Format: biochemical. Particulars: read-out: Class A TEM-1 60 min IC50, nitrocefin 100 μM. The method in brief: (§1)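 Nitrocefin (100 μM) hydrolysis followed at 490 nm for 1 h in 0.1 M sodium phosphate pH 7.0, 10 mM NaHCO3, 0.005% Triton X-100, with 3-fold inhibitor dilutions from 100 μM to 62.7 pM. Progress curves fitted globally to give kinact/Ki or Ki; percent inhibition from best-fit absorbance fitted with Hill equation.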

The subject of data set [2] is Klebsiella pneumoniae SHV-18, OXA-2, OKP-6 (ATCC 700603). As to the kind of experiment: MIC, CLSI broth microdilution, beta-lactam with or without BLI. Format: cell-based. Particulars: BLI at fixed 4 μg/ml; K. pneumoniae ATCC 700603. The method, then: (§2) The minimal inhibitory concentration (MIC) values against each organism and drug combination were determined using the Clinical and Laboratory Standards Institute guidelines (CLSI) broth microdilution methodology (CLSI M07-A10). The recommended quality control (QC) bacterial strains E. coli ATCC 25922, E. coli ATCC 35218 and Klebsiella pneumoniae ATCC 700603 were incorporated into each test according to the CLSI guidelines to assure that there was no variation between test dates (CLSI M100-S25). The MICs of these QC strains were within QC range on all test occasions. Drug containing plates were made using the master plate method. A cefpodoxime solution was prepared to 20× concentration and 2-fold serial dilutions were made in cation adjusted Mueller-Hinton Broth. Equal volumes of 20× examplar compounds at a fixed concentration were added to the master plate. 10 uL was stamped into daughter plates using a Tecan EVO robot. Organism suspensions were adjusted to a 0.5 McFarland standard and further diluted to yield a final inoculum between 3×10^5 and 7×10^5 colony-forming units (CFU)/mL. Bacterial inocula were made in sterile, cation adjusted Mueller-Hinton Broth (Beckton Dickinson). An inoculum volume of 1.1× concentration of 90 uL was added to wells (using a Tecan EVO robot). All inoculated microdilution plates were incubated in ambient air at 35° C. for 18-24 hours.
(§3) Following the procedure from Example 103, MICs were determined for several beta-lactams in presence of a fixed concentration (4 μg/mL) of exemplar compounds (Table 3) against 3 Enterobacteriaceae strains.

The subject of another data set is E. coli WT (ATCC 25922). Described as above. Format: cell-based. Particulars: BLI at fixed 4 μg/ml. The method, then:
as §2, §3

For data set [3], the system named is C. freundii AmpC, TEM-1, CMY65. The description is as above. Particulars: BLI at fixed 4 μg/ml. Format: cell-based. The method, then:
as §2, §3

The target in data set [4] is OXA-48 (Class D beta-lactamase) (Klebsiella pneumoniae, UniProt Q6XEC0). As to the kind of experiment: Inhibition of beta-lactamase enzymes (nitrocefin hydrolysis), OXA-48. Format: biochemical. The conditions noted are these: read-out: Class D OXA-48 60 min IC50, nitrocefin 100 μM. The method in brief: as §1
A short description of data set [5]: Rat PK, intravenous and oral. Format: in vivo, Sprague-Dawley rats. The conditions noted are these: for AUC: Sprague-Dawley, plasma, rat, IV 10 mg/kg, analyte = compound administered. The method, then: Intravenous rat pharmacokinetics of exemplar compounds were determined in jugular vein cannulated Sprague-Dawley rats (n=3) (Harlan Laboratories, Indianapolis, Ind.) at a dose of 10 mg/kg. Compounds were dissolved and administered intravenously in 0.9% saline, pH 6.5 at a dose volume of 2 mL/kg. […] Oral pharmacokinetic studies were conducted with exemplar compounds at 10 mg/kg equivalents of carboxylic acids. Doses were dissolved and administered orally in 25:75 PEG400: water for injection, pH 4.5 at a dose volume of 10 mL/kg. […] Plasma samples were stored at −80° C. prior to bioanalysis.
Plasma samples were thawed on ice prior to processing. Samples (30 μL) were diluted and proteins precipitated with 180 μL of acetonitrile containing 0.1% formic acid and 250 ng/mL of carbutamide (N1-(butylcarbanoyl)-sulfanilamide, Sigma-Aldrich Catalog # S385433) as an internal standard. Samples were vortexed for 30 seconds, centrifuged at 3400 g for 10 minutes and the supernatant transferred to injection vials.
LC/MS/MS analysis was completed on an AB Sciex QTrap 6500 mass spectrometer in positive ionization mode, coupled to a Schimadzu Nexera LC system. A Waters Atlantis T3 (3 μm, 3.0×50 mm) column was used for chromatographic separation. Injection volume was […] The mobile phase consisted 0.1% formic acid in water (A) and 0.1% formic acid in acetonitrile (B), with a gradient of 2-98% B:A over two minutes.
Plasma concentration vs. time profiles following intravenous (IV) administration and oral (PO) administration of exemplar compounds were analyzed by non-compartment analysis using WinNonLin 6.4.

A short description of data set [6]: Stability/conversion of esters in rat liver S9. Format: in vitro ADME. Particulars: s9, pH 7.4, read-out: T1/2 Rat Liver S9. The method in brief:
(§4)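 Esters at 10 μM incubated at 37 °C with 0.8 mg/mL S9 (human intestinal without PMSF, rat liver or rat intestinal) or no enzyme, in 100 mM HEPES pH 7.4; sampled 0–60 min. LC-MS/MS tracked ester and hydrolysed active; first-order T1/2 from ester disappearance.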

A short description of data set [7]: Stability/conversion of esters in human intestinal S9. Format: in vitro ADME. The conditions noted are these: s9, pH 7.4, read-out: T1/2 Human Intestinal S9. The method in brief: as §4
The nature of data set [8]: Stability in pH 7.4 buffer (no enzyme). Particulars: buffer, read-out: T1/2 pH 7.4 Buffer. Format: physicochemical. The method in brief: as §4
Data set [9] in a line: Stability/conversion of esters in rat intestinal S9. Format: in vitro ADME. Particulars: s9, pH 7.4, read-out: T1/2 Rat Intestinal S9. The method in brief:
as §4

Data set [10] can be described thus: Stability/conversion of esters in human liver S9. Format: in vitro ADME. The conditions noted are these: s9, pH 7.4, read-out: T1/2 Human Liver S9. The method in brief: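 Ester test compounds (10 μM) were incubated at 37° C with human liver S9 at 0.8 mg/mL in 100 mM HEPES buffer, pH 7.4. Aliquots taken from 0 to 60 min were quenched in acetonitrile containing carbutamide internal standard, centrifuged, and analyzed by LC-MS/MS MRM; first-order half-lives came from loss of the parent ester.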

Data set [11] deals with E. coli ARC2687 (AmpC, CTX-M-14). As to the kind of experiment: Mouse neutropenic thigh infection model, oral efficacy of cefpodoxime proxetil with Example 35. Format: in vivo. How it is done: The oral in vivo efficacy of Example 35 was evaluated in combination with cefpodoxime proxetil in a mouse neutropenic thigh infection model versus a relevant clinical isolate. […] CD-1 mice (Charles River, Wilmington US) were housed in shoebox type cages with contact bedding and acclimated to the facility for a minimum of 2 days prior to use. The animal room was maintained at 70° F., with 50+/−10% relative humidity and a 12-hour light/dark cycle. The study was conducted using an IACUC-approved protocol in accordance with Title 9 of the Code of Federal Regulations. Animals were rendered neutropenic with two intraperitoneal doses of cyclophosphamide (150 mg/kg—4 days and 100 mg/kg—1 day prior to infection (Gerber et al. (1983) J Infect Dis 147(5); 910-917)). Animals were infected via an intramuscular challenge of ˜1×10^6 CFU administered within 100 μL of 0.9% saline. The inoculum was prepared from a 25 mL overnight culture of E. coli ARC 2687 in tryptic soy broth media. Following an OD600 determination, the inoculum was diluted in 0.9% saline to a concentration of […] prior to inoculation into the left and right thigh. Oral therapy with cefpodoxime proxetil alone and in combination with Example 35 was initiated 2 hours post bacterial challenge. Doses were suspended in 0.5% HPMC/0.1% Tween 80 and administered by oral gavage at a dose volume of 10 mL/kg. A terminal endpoint was obtained at 24 hr to determine bacterial counts in thigh tissue (CFU/gm). Animals were ethically euthanized, thighs were asceptically removed, weighed and homogenized in 1 mL of saline. Bacterial burden enumeration of tissue homogenate was performed by serial dilution on tryptic soy agar plates which were incubated overnight at 37° C. prior to colony (CFU) counting. The lower limit of detection was ˜2.6 log10 CFU/gm of tissue.

Where a name gives a salt, the structure may show the parent alone.

Chain of TEM-1 (Class A beta-lactamase) (P62593 whole entry, looked up, species assumed): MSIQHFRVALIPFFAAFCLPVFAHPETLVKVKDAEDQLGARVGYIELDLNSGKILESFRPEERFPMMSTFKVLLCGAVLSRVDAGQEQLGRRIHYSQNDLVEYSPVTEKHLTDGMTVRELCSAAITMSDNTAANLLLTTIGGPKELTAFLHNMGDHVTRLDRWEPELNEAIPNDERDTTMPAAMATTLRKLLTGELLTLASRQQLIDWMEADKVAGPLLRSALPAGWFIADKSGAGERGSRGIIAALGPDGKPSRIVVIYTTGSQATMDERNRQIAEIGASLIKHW
Chain of OXA-48 (Class D beta-lactamase) (Q6XEC0 whole entry, looked up, species assumed): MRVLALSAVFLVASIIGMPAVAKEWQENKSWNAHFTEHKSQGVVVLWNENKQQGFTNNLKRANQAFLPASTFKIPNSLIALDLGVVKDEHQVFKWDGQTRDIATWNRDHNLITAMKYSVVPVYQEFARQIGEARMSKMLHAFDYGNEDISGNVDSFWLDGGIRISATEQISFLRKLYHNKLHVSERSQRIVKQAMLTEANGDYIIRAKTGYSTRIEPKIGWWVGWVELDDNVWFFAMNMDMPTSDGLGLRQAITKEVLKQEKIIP

As to `CC1=C[C@@H]2CN(C(=O)N2O[C@H](F)C(=O)O)[C@@H]1C(N)=O` [Example 4, (2R)-{[(2S,5R)-2-carbamoyl-3-methyl-7-oxo-1,6-diazabicyclo[3.2.1]oct-3-en-6-yl]oxy}(fluoro)ethanoic acid lithium salt], the figures for the IC50 in data set [1] and in data set [4] were 0.00135 µM and 0.015 µM, respectively. Besides, the “MIC of cefixime in presence of BLI” value (in data set [2]; in the data set on E. coli WT (ATCC 25922); in data set [3]) was ≤0.06 µg/mL each time. Moreover, the “MIC of faropenem in presence of BLI” value in data set [2] is 1 µg/mL; in the data set on E. coli WT (ATCC 25922) it was ≤0.06 µg/mL; in [3], ≤0.06 µg/mL. Besides, the “MIC of tebipenem in presence of BLI” value (in [2]; in the data set with E. coli WT (ATCC 25922); in [3]) was ≤0.06 µg/mL in each case. The “MIC of cefuroxime in presence of BLI” value (in the data set with E. coli WT (ATCC 25922); in data set [3]) was 0.02 µg/mL in each case. In data set [5], this molecule displayed an exposure (AUC) of 19.1 µM·h.
`CC1=C[C@@H](C(N)=O)N2C[C@@H]1N(O[C@H](F)C(=O)OC(C)C)C2=O` [Example 35, (2R)-isopropyl 2-(((2S,5R)-2-carbamoyl-4-methyl-7-oxo-1,6-diazabicyclo[3.2.1]oct-3-en-6-yl)oxy)-2-fluoroacetate]: the half-life at 10 μM in [6] worked out at 0.533 h; in data set [7] it was 2.72 h; in data set [8], 3.1 h; in [9], 4 h; in data set [10], 0.65 h. For the same molecule, in [11] (50 mg/kg cefpodoxime proxetil + 100 mg/kg Example 35 q6h, oral, 24 hr), the “maximal kill relative to initiation of therapy” value was −0.75 log10 CFU/gm. Further, the log10CFU/gm thigh in data set [11] (Example 35 alone 10 mg/kg PO/q6h, mouse neutropenic thigh, E. coli ARC2687) was 9.56 log10CFU/gm thigh. In data set [11] (Example 35 alone 10 mg/kg PO/q6h, relative to 26 hr growth control), the “CFU Change from 26 hr” value was −1.30 log10 CFU/gm. For the same molecule, the “CFU Change from 2 hr” value in [11] (Example 35 alone 10 mg/kg PO/q6h, relative to initiation of therapy) was “+3.29 log10 CFU/gm”. Also, the “growth of bacterial burden in thighs after 24 hours of therapy” value in data set [11] (Example 35 alone at 10 mg/kg q6h, oral, neutropenic CD-1 mice) was “greater than 3 log10 CFU/gm”. Further, the “effect of increasing dose on bacterial burden” value in data set [11] (in combination with cefpodoxime proxetil 50 mg/kg q6h, oral) is listed as “dose dependent reduction of bacterial burden”. Besides, the “Circulating concentrations of the ester in plasma” value in data set [5] (rat plasma, LC/MS/MS) is listed as “Rapid hydrolysis precluded satisfactory analysis of circulating concentrations”.
As to `CC1=C[C@@H]2CN(C(=O)N2O[C@@H](F)C(=O)O)[C@@H]1C(N)=O` [Example 3, (2S)-{[(2S,5R)-2-carbamoyl-3-methyl-7-oxo-1,6-diazabicyclo[3.2.1]oct-3-en-6-yl]oxy}(fluoro)ethanoic acid lithium salt], the IC50 in [1] came to 0.019 µM. In [2], the “MIC of cefixime in presence of BLI” value was found to be 0.5 µg/mL, the “MIC of faropenem in presence of BLI” value turned out to be 2 µg/mL and the “MIC of tebipenem in presence of BLI” value turned out to be 0.125 µg/mL. Besides, in the data set on E. coli WT (ATCC 25922), the “MIC of cefixime in presence of BLI” value stood at 0.125 µg/mL, the “MIC of cefuroxime in presence of BLI” value was determined as 0.02 µg/mL, the “MIC of faropenem in presence of BLI” value stood at 0.25 µg/mL and the “MIC of tebipenem in presence of BLI” value was ≤0.06 µg/mL. Further, in data set [3], the “MIC of cefixime in presence of BLI” value was 1 µg/mL, the “MIC of cefuroxime in presence of BLI” value worked out at 1 µg/mL, the “MIC of faropenem in presence of BLI” value is 0.25 µg/mL and the “MIC of tebipenem in presence of BLI” value is ≤0.06 µg/mL. The IC50 in data set [4] was 0.015 µM. The AUC in data set [5] came to 34.9 µM·h.
Consider `CC1=C[C@@H](C(N)=O)N2C[C@@H]1N(O[C@@H](F)C(=O)O)C2=O` [Example 34, (2S)-2-(((2S,5R)-2-carbamoyl-4-methyl-7-oxo-1,6-diazabicyclo[3.2.1]oct-3-en-6-yl)oxy)-2-fluoroacetic acid lithium salt], for which the IC50 in [1] amounted to 0.026 µM. In [2], the “MIC of cefixime in presence of BLI” value was ≤0.06 µg/mL, the “MIC of cefuroxime in presence of BLI” value came to 1 µg/mL, the “MIC of faropenem in presence of BLI” value came to 0.5 µg/mL and the “MIC of tebipenem in presence of BLI” value is ≤0.06 µg/mL. Moreover, in the data set on E. coli WT (ATCC 25922), the “MIC of cefixime in presence of BLI” value is ≤0.06 µg/mL, the “MIC of cefuroxime in presence of BLI” value is <0.03125 µg/mL, the “MIC of faropenem in presence of BLI” value is ≤0.06 µg/mL and the “MIC of tebipenem in presence of BLI” value is ≤0.06 µg/mL. Besides, in [3], the “MIC of cefixime in presence of BLI” value is ≤0.06 µg/mL, the “MIC of cefuroxime in presence of BLI” value was <0.03125 µg/mL, the “MIC of faropenem in presence of BLI” value was ≤0.06 µg/mL and the “MIC of tebipenem in presence of BLI” value is ≤0.06 µg/mL. In [4], the IC50 was 0.019 µM. In data set [5], this molecule registered an AUC of 16.1 µM·h.
